What was measured:
[1] = Clinical pharmacokinetics across phase I schedules; type: in vivo, human; details: plasma PK, initial results
Method: […] intravenous schedules are under phase I evaluation: weekly 24 h infusion, biweekly 24 h infusion and 5 consecutive days 1 h infusion every 3 weeks. APL blood concentrations are analysed by liquid chromatography-tandem mass spectrometry. […] An open 2-compartment model fits appropriately most profiles after 24 h infusion. For 1 h infusions a 3-compartment model provides a better fit in most cases. Obtained plasma levels are known to be active in vitro. Evaluation of additional patients, and a comparison of blood cells and plasma PK is ongoing.

VEGF mRNA = VEGF mRNA levels in IGROV-1; type: cell-based, human
PLK-1 = assay: cDNA expression array in MOLT-4 cells; type: cell-based, human; details: MOLT-4, 1 h treatment
Method: (§1) The early changes in gene expression induced by aplidine in MOLT-4 cells were evaluated by using cDNA expression arrays (Atlas Human Cancer, Clontech). MOLT-4 cells were treated for 1 hour with concentrations of aplidine which inhibit the growth by 50% and total RNA was isolated at 0, 1, 6 and 24 hours after drug wash out. Filters were hybridised with equal amount of 32P labelled cDNA. Analysis of the results was carried out using ATLAS IMAGE 1.0 software. Changes in gene expression greater than 2 fold were taken as significant changes in RNA expression and subsequently confirmed by PCR.
as §1, with “In the present study we have evaluated the early” for “The early”, “cells” for “cells were evaluated”, “of aplidien” for “of aplidine”, “isolated t” for “isolated at”, “equal amounts” for “equal amount”, “PCR. […] Whether the down-regulation of flt-1 is involved in the cytotoxic and antitumour effect of aplidine is under investigation at the moment.” for “PCR.”
(§2) The human leukaemia cell line MOLT-4 was used for these experiments MOLT-4 cells were treated for 1 hour with 20 nM of aplidine. Total RNA was extracted at the end of treatment and 6 and 24 hours after recovery in drug-free medium.
(§3) 5 μg of total RNA were retrotanscribed to cDNA in the presence of ^32P dATP. Equal amounts of radioactive probes were hybridised to Atlas Human Cancer Microarrays (Clontech). After washing, filter were exposed and the results analysed using the Atlas Image software. Only a gene expression difference greater than 2 fold between treated and untreated cells were taken into account. RT-PCR and northern analysis have been performed to confirm the changes in gene expression found with the microarrays.

FMS = assay: cDNA expression array in MOLT-4 cells; type: cell-based, human; details: for quantitative change in FMS expression: MOLT-4, 1 h treatment
Method: as §1
as §1, with “In the present study we have evaluated the early” for “The early”, “cells” for “cells were evaluated”, “of aplidien” for “of aplidine”, “isolated t” for “isolated at”, “equal amounts” for “equal amount”, “PCR. […] Whether the down-regulation of flt-1 is involved in the cytotoxic and antitumour effect of aplidine is under investigation at the moment.” for “PCR.”
as §2, §3

ETR = assay: cDNA expression array in MOLT-4 cells; type: cell-based, human
Method: as §1
as §1, with “In the present study we have evaluated the early” for “The early”, “cells” for “cells were evaluated”, “of aplidien” for “of aplidine”, “isolated t” for “isolated at”, “equal amounts” for “equal amount”, “PCR. […] Whether the down-regulation of flt-1 is involved in the cytotoxic and antitumour effect of aplidine is under investigation at the moment.” for “PCR.”
as §2, §3

DNA-PK = assay: cDNA expression array in MOLT-4 cells; type: cell-based, human; details: MOLT-4, 1 h treatment
Method: as §1
as §1, with “In the present study we have evaluated the early” for “The early”, “cells” for “cells were evaluated”, “of aplidien” for “of aplidine”, “isolated t” for “isolated at”, “equal amounts” for “equal amount”, “PCR. […] Whether the down-regulation of flt-1 is involved in the cytotoxic and antitumour effect of aplidine is under investigation at the moment.” for “PCR.”
as §2, §3

Gastric MRI-H254 = assay: sc xenograft, gastric tumour, mouse; type: in vivo; details: for Activity (% T/C.): xenograft, mouse
Method: Different model systems were evaluated to provide the basis for further clinical work. Selective antitumour activities were seen against two histologically different solid tumours: human gastric and prostate carcinomas. Potent in vitro activity to primary gastric tumour specimens or Hs746T gastric tumour cells is evident with IC30 values of 146 and 450 pM, respectively. […] activities were evaluated in nude rodents using sc implanted tumour fragments or hollow fibres (HF) containing tumour cells.
Follow-up studies necessitated using rats for iv infusions. With this variation, a 24 hr iv infusion schedule produced similar activities against HF gastric (20%) and HF prostate (31%) tumour cells. Cytotoxicity was also found using a 5 day iv infusion schedule against HF prostate tumour cells (33%).

prostate tumour = details: 1.25 mg/kg; cited from earlier work
[2] = system: advanced solid tumours and lymphoma; assay: Phase I, 1 h weekly infusion x3 q4wk: antitumour activity; type: in vivo, human
From the text: Adult patients with advanced disease, PS<3, and appropriate organ function are considered eligible; patients receive aplidine wk×3/q^4 wks. 24 solid tumour patients have been entered: median (m) age 55 y, m ECOG=1, 15/24 patients treated with =>2 treatment cycles. Seven dose levels (DL) from 133 mcg/m^2/wk to 2700 mcg/m^2/wk have been assessed: 102 infusions are evaluable for toxicity (tox). […] At 2700 mcg/m^2/wk (4 pts), 1 had G3 hiperbilirrubinemia that has been considered to be dose limiting and therefore 2700 mcg/m^2/wk DL is being expanded. […] Plasma levels >1 ng/ml 24 hours after infusion are reachable form 1800 mcg/m^2/wk. […] Aplidine appears to be clinically feasible at pharmacologically appropriate dose levels.
Aplidine was administered as a 1 hour weekly×3 every four weeks

cell cycle = details: flow cytometric analysis; cited from earlier work
MOLT-4 = assay: apoptosis in leukaemia cell line; type: cell-based, human
[3] = system: solid tumours and Non-Hodgkin's Lymphomas; assay: Phase I, 1 h daily infusion x5 q3wk: antitumour activity; type: in vivo, human
Method: The objectives are to determine the Maximum Tolerated Dose, the Dose Limiting Toxicity (DLT), the pharmacokinetics (PK) and the recommended dose for phase 2 studies that can be given in a daily 1 hour IV infusion×5 days q 3 weeks. Patients with solid tumours and low and intermediate grade Non-Hodgkin's Lymphomas were eligible. The daily starting dose of aplidine was 80 μg/m^2. Cohorts of 3 patients (pts) are treated at each level with dose escalation according to toxicity, 20 patients were treated with 6 dose levels ranging from 80 μg-720 μg/m^2, 1 patient is presently at the dose of 960 μg/m^2. At total of 48 cycles were administered. Non-haematological toxicities were grade 1 and 2 with fatigue reported in most pts. Grade 1 hypersensitivity reactions were documented in 7 patients. Other toxicities included nausea, anorexia, diarrhoea, and anxiety. […] PK analysis was performed in treatment course 1. Aplidine concentrations were analysed by LC tandem mass spectrography. […] Potentially therapeutic plasma concentrations ([…]) were achieved. […] Accrual is ongoing at 960 μg/m^2.

With aplidine the elimination half lives [1] was 10 to 24 h, the volume of distribution [1] was > 200 L/m^2 and the “mRNA levels of VEGF, in words” value (VEGF mRNA) was “reduces the mRNA levels of VEGF”. For the same substance, the “quantitative change in PLK-1 expression” value (PLK-1; 6 Hours) was “+3.0 fold”, the “quantitative change in PLK-1 expression” value (PLK-1; 24 Hours) was “+4.4 fold” and the “quantitative change in FMS expression” value (FMS; 6 Hours) was “+2.7 fold”. The “quantitative change in FMS expression” value (FMS; 24 Hours) was “+2.1 fold”, the “levels of Fms, in words” value (FMS; MOLT-4, 6 hours after recovery in drug-free medium) was “increase” and the “ETR levels, in words” value (ETR; MOLT-4, 20 nM 1 h, after 6 and 24 hours) was “returned to normal level”. For the same substance, the “expression of early response gene ETR, in words” value (ETR; MOLT-4, 20 nM 1 h, at the end of treatment) was “increased”, the “quantitative change in ETR expression” value (ETR; MOLT-4, 1 h treatment, 1 Hour) was “+2.7 fold” and the “quantitative change in DNA-PK expression” value (DNA-PK; 6 Hours) was “+3.0 fold”. The “quantitative change in DNA-PK expression” value (DNA-PK; 24 Hours) was “+3.8 fold”, the “Optimal activities, xenografted gastric tumours” value (Gastric MRI-H254; ip administration, range over regimens) was 17-20% and the “Activity (% T/C.)” value (Gastric MRI-H254; q4dx3.ip, 1.25 mg/kg) was 18% T/C. The “Activity (% T/C.)” value (Gastric MRI-H254; qd9.ip, 1.05 mg/kg) was 17% T/C, the “Activity (% T/C.)” value (Gastric MRI-H254; qd9.ip, 2.1 mg/kg) was 19% T/C and the T/C (prostate tumour) was 25%. For the same substance, the “response, Pat #16, gastric adenocarcinoma resistant to FAM” value ([2]; 1200 μg/m^2 weekly) was “Slight improvement in the lymph node masses”, the “activity in gastric cancer” value ([2]; 1 patient at 1200 mcg/m^2) was “Early hints of activity” and the “response, advanced renal cancer resistant to VBL-IFN” value ([2]; 2700 mcg/m^2/wk DL) was “ongoing objective response”. The “response, Pat #23, kidney carcinoma with pulmonary nodules” value ([2]; after 2 infusions at 2700 μg/m^2 weekly) was “Partial remission in lung nodules”, the “response, Pat #29, kidney carcinoma” value ([2]; after 3 infusion) was “Clinical improvement” and the cell cycle pertubations (cell cycle) was “did not induce any apparent cell cycle pertubations”. For the same substance, the apoptosis (MOLT-4) was “strong apoptosis”, the “duration of stable disease, colon cancer” value ([3]; 1 patient) was 9 months and the “response, renal cell cancer” value ([3]; 1 patient) was “mixed response”. For the same substance, the objective responses ([3]; in vivo) was “No objective responses”, the “reduction in the size of the tumor, heavily pre-treated CRC” value ([3]; one patient) was 40% and the “reduction in sum of tumour measurements, renal cell cancer and liver mets” value ([3]; one patient, mixed responses) was 10%. For the same substance, the “duration of stable disease, heavily pre-treated CRC” value ([3]; one patient, total 13 cycles) was ≥ 6 months.

From US20090298752A1, “APLIDINE TREATMENT OF CANCERS” (PHARMA MAR, S.A., priority 1999, published 2009)
